According to patent US8680253B2 (OliPass Corporation, priority 2008, dated 2014):
Where “and” joins values, the source holds several entries; their conditions need not be identical. Equal values may be shown once. {Lys-NH2} = C-terminal lysine amide

Test system: complementary DNA
Assay: Binding affinity for DNA: Tm between PNA and complementary DNA (UV absorbance at 260 nm)
Details: 4 μM PNA oligomer and 4 μM DNA, aq buffer pH 7.16, 10 mM sodium phosphate, 100 mM NaCl
Description: PNA oligomers of this invention were evaluated for their binding affinity for DNA by measuring Tm values as follows.
4 μM PNA oligomer and 4 μM DNA were mixed in aq buffer (pH 7.16, 10 mM sodium phosphate, 100 mM NaCl), and incubated at 90° C. for a few minutes and slowly cooled down to RT. Then the solution was transferred into a 4 ml quartz cuvette and the cuvette was tightly sealed. The cuvette was mounted on an Agilent 8453 UV/Visible spectrophotometer and absorbance changes at 260 nm were recorded with increasing the temperature of the cuvette by either 0.5 or 1.0° C. per minute. From the absorbance vs temperature curve, the temperature showing the largest increase rate in absorbance was read out as the melting temperature Tm between PNA and DNA. DNAs for Tm measurement were purchased either from Bioneer, Inc. (www.bioneer.com, Daejon, South Korea) or from Ahram Biosystems (www.ahrambio.com, Seoul, South Korea), and used without further purification.
FIG. 3 provides graphs of absorbance changes with temperature for Oligo 17 against complementary or mismatch DNA. For sequences of the mismatch DNAs against Oligo 17, refer to Table 2. In FIG. 3, there is a transition temperature in each curve, which was read out as the Tm value for the curve.
Tm values are provided in Table 2 for PNA oligomers of this invention. These Tm values are presented for illustrative purposes only and should not be interpreted as a restriction to this invention.

## Fam-L(2)-CA(5)T-A(4g)GT-A(4g)TA(5)-AGT-Lys-NH2 (CATAGTATAAGT; Fam-L(2) label, modified PNA, Lys-NH2, chemistry not fully specified) [Oligo 24, fluorescein-tagged modified PNA oligomer]
  Tm between PNA and complementary DNA: 70 °C

## TGC(1O3)-TAC-TAC(1O3)-TG-Lys-NH2 (TGCTACTACTG; modified PNA, C-terminal Lys-NH2, chemistry not fully specified) [Oligo 3, modified PNA oligomer]
  Tm between PNA and complementary DNA: 65 °C

## CA(3)T-A(3)GT-A(3)TA-A(3)GT-NH2 (CATAGTATAAGT; chemistry not fully specified) [Oligo 12]
  Tm between PNA and complementary DNA: 60 °C

## TGC-TAC-TAC-TG-Lys-NH2 (TGCTACTACTG; all peptide nucleic acid (PNA), 3' {Lys-NH2}) [Oligo 5, unmodified PNA oligomer, reference compound]
  Tm between PNA and complementary DNA: 55 °C

## CA(2O2)T-A(2O2)GT-A(2O2)TA-A(2O2)GT-NH2 (CATAGTATAAGT; chemistry not fully specified) [Oligo 18, modified PNA oligomer]
  Tm between PNA and complementary DNA: 66 °C

## TGC(2O2)-TAC-TAC(2O2)-TG-Lys-NH2 (TGCTACTACTG; modified PNA, monomer codes such as C(1O3), A(5) undefined, C-terminal Lys-NH2, further chemistry not given here) [Oligo 8, modified PNA oligomer]
  Tm between PNA and complementary DNA: 68 °C

## CA(4)T-A(4)GT-A(4)TA-A(4)GT-NH2 (CATAGTATAAGT; PNA-like chain with modified monomers A(5)/A(4), C-terminal amide, codes undefined, further chemistry not given here) [Oligo 13, modified PNA oligomer]
  Tm between PNA and complementary DNA: 64 °C

## CA(5)T-A(5)GT-A(5)TA-A(5)GT-NH2 (CATAGTATAAGT; chemistry not fully specified) [Oligo 14, modified PNA oligomer]
  Tm between PNA and complementary DNA: 69 °C

## CAT-AGT-ATA-AGT-NH2 (CATAGTATAAGT; chemistry not fully specified) [Oligo 27, unmodified PNA oligomer, reference compound]
  Tm between PNA and complementary DNA: 55 °C

## CA(7)T-A(7)GT-A(7)TA-A(7)GT-NH2 (CATAGTATAAGT; chemistry not fully specified) [Oligo 15, modified PNA oligomer]
  Tm between PNA and complementary DNA: 71 °C

## CAT-AGT-ATA-AGT-Lys-NH2 (CATAGTATAAGT; all peptide nucleic acid (PNA), 3' {Lys-NH2}) [Oligo 16, unmodified PNA oligomer, reference compound]
  Tm between PNA and complementary DNA: 56 °C

## GCA-CAT-TTG-CCT-Lys-NH2 (GCACATTTGCCT; all peptide nucleic acid (PNA), 3' {Lys-NH2}) [Oligo 11, unmodified PNA oligomer, reference compound]
  Tm between PNA and complementary DNA: 58 °C and 59 °C

## TGC-TAC(1O3)-TAC-TG-Lys-NH2 (TGCTACTACTG; modified PNA, monomer codes such as C(1O3), A(5) undefined, C-terminal Lys-NH2, further chemistry not given here) [Oligo 4, modified PNA oligomer]
  Tm between PNA and complementary DNA: 61 °C
